Data published in patent US10538561B2, “Peptide for treating inflammatory diseases” (priority 2015, dated 2020).
Marks after values point to notes of the source that are not given here.

Columns and labels:
[1] = Cell viability (MTT assay) in PBMCs; assay type: cell-based, Human; conditions: human, PBMCs
Procedure: (§1) Cell Lines/Cells: Human Keratinocytes (HaCaT); Human melanoma (SK-MEL-28); Human PBMCs. Test Item: IS181 Treatment regimen: Single addition—24 h, ^#Multiple additions (3)−72 h; Concentration range: 1 ng/ml-2 mg/ml (triplicate wells); Sera Condition: […] Method of estimation: MTT assay. […] Positive control: Triton-X-100, Doxorubicin Hydrochloride.

[2] = system: Human PBMCs; assay: Cell viability (MTT assay) in PBMCs; assay type: cell-based; conditions: for IC50 value / cytotoxicity: PBMCs
Procedure: as §1

[3] = system: Human Keratinocytes (HaCaT); assay: DNA fragmentation assay in HaCaT; assay type: cell-based; conditions: 48 h
Procedure: Cells were lysed and fragmented DNA was precipitated using PEG/NaCl solution. The fragmented DNA was incubated with 0.2 μg/ml of Hoechst 33258 dye and fluorescence was read at 360 ex/460 em. End point: Percentage induction of DNA fragmentation with respect to untreated Positive control. Anthralin. IS 181 led to induction of DNA fragmentation in HaCaT cells at all the concentrations tested except at 100 μg/ml. […] The overall effect of IS 181 on induction of DNA fragmentation with respect to untreated in HaCaT cells ranged from −18.8% to 83.3%. (FIG. 8 and Table-6).

[4] = system: IL-8; assay: LPS+PMA stimulated IL-8 secretion in HaCaT; assay type: cell-based, Human; conditions: for IL-8 % decrease with respect to LPS + PMA / IL-8 Conc: HaCaT + LPS + PMA, 24 h
Procedure: (§2) Effect on pro-inflammatory cytokines against TNF-α/LPS+PMA stimulation: TNF-α; IFN-γ; TARC; TSLP; IL-6; IL-8: Cell lines: Human keratinocytes (HaCaT); test item (TI); IS181; experimental steps: pre-treatment of cells with TI for 2 hours; stimulation with TNF-α: 20 ng/ml; stimulation with LPS+PMA-10 μg/ml LPS+40 ng/ml PMA; supernatant collection for cytokine analysis after 24 hours; concentration range: 0.1 μg/ml-100 μg/ml (duplicate wells); cytokines: TNF-α; IFN-γ; TARC; TSLP; IL-6; IL-8. Method of estimating cytokines: ELISA; positive control: dexamethasone.
(§3) Cell line: HaCaT (Human Keratinocytes); TI Treatment regimen: Pretreatment for 2 h; TI Concentration range: 0.1 μg/ml-100 μg/ml (duplicate wells); TNF-α stimulation: 20 ng/ml; LPS+PMA stimulation: 10 μg/ml LPS+40 ng/ml PMA; Time point for supernatants collection: 24 h; Method of estimation: ELISA; Positive control: Dexamethasone

[5] = system: TSLP; assay: LPS+PMA stimulated TSLP secretion in HaCaT; assay type: cell-based, Human; conditions: for TSLP % decrease with respect to LPS + PMA / TSLP Conc (pg/ml): HaCaT + LPS + PMA, 24 h
Procedure: as §2, §3

[6] = Cell viability of THP-1 (MTT); assay type: cell-based, Human; conditions: human, THP-1 monocytic cells, THP-1, 24 h, read-out: Cell viability (wrt Untreated)
Procedure: (§4) Cell lines: Human monocytic cell line (THP-1); test item: IS181: treatment regimen; single addition—24 hours; concentration range: 10 μg/ml-5000 μg/ml. A) Identification of non-cytotoxic concentrations: THP-1 cells were treated with IS181 for 24 hours; effect on cell viability was assessed by MTT assay; concentrations leading to >75% cell viability were selected for IL-23 assay. […] Positive control: curcumin. […] Since supernatants corresponding to 5 concentrations were to be tested for […], we also tested 1 mg/ml.

[7] = system: Human monocytic cell line (THP-1); assay: Cell viability of THP-1 (MTT); assay type: cell-based
Procedure: as §4

[8] = target: PRKCA (PKC alpha) (Homo sapiens, UniProt P17252); assay: Biochemical kinase assay PRKCA
Procedure: Test system: cell free assays; test items: IS181; concentrations tested: 1 ng/ml-5000 μg/ml; Kinases: a) Cell free assays: EGFR (ErbB1); FLT1 (VEGFR1); JAK1; JAK3 MAP2K1 (MEK1); PDGFRA (PDGFR alpha); PRKCA (PKC alpha); b) cell based assay: JAK-STAT.

H-WVQRVVEKFLK-OH [IS181, H-Trp-Val-Gln-Arg-Val-Val-Glu-Lys-Phe-Leu-Lys-OH]
cytotoxicity at 24 h, 1000 μg/ml ([1]; human PBMCs, 24 h, 1000 μg/ml): 40.2%
cytotoxicity at 24 h, 2000 μg/ml ([1]; human PBMCs, 24 h, 2000 μg/ml): 53%
cytotoxicity at 72 h, 500 μg/ml ([1]; human PBMCs, 72 h, 500 μg/ml): 32.7%
cytotoxicity at 72 h, 1000 μg/ml ([1]; human PBMCs, 72 h, 1000 μg/ml): 70.8%
cytotoxicity at 72 h, 2000 μg/ml ([1]; human PBMCs, 72 h, 2000 μg/ml): 66.1%
cytotoxicity at 24 h, 10 μg/ml ([1]; peripheral blood mononuclear cells (PBMCs), 24 h, 10 μg/ml): -76.5%
cytotoxicity at 24 h, 50 μg/ml ([1]; peripheral blood mononuclear cells (PBMCs), 24 h, 50 μg/ml): -67.1%
cytotoxicity at 24 h, 100 μg/ml ([1]; peripheral blood mononuclear cells (PBMCs), 24 h, 100 μg/ml): -88.3%
cytotoxicity at 24 h, 500 μg/ml ([1]; peripheral blood mononuclear cells (PBMCs), 24 h, 500 μg/ml): -105%
cytotoxicity at 72 h, 10 μg/ml ([1]; peripheral blood mononuclear cells (PBMCs), 72 h, 10 μg/ml): 18.7%
cytotoxicity at 72 h, 50 μg/ml ([1]; peripheral blood mononuclear cells (PBMCs), 72 h, 50 μg/ml): 20.1%
cytotoxicity at 72 h, 100 μg/ml ([1]; peripheral blood mononuclear cells (PBMCs), 72 h, 100 μg/ml): 14%
IC50 ([2]; 24 h): 1400 µM
IC50 ([2]; 72 h): 680 µM
IC50 value ([2]; 24 h): 2000 µg/mL
cytotoxicity ([2]; 24 h, at concentrations 1 mg/ml): 40% to 53%
IC50 value ([2]; 72 h): 980 µg/mL
cytotoxicity ([2]; 72 h, concentrations >0.5 mg/ml): 33% to 66%
% induction of DNA fragmentation ([3]; 100 μg/ml): −18.8%
overall effect on induction of DNA fragmentation with respect to untreated ([3]; 100 μg/ml to 5000 μg/ml): −18.8% to 83.3%
% induction of DNA fragmentation ([3]; 500 μg/ml): 35.4%
% induction of DNA fragmentation ([3]; 1000 μg/ml): 35.4%
% induction of DNA fragmentation ([3]; 2000 μg/ml): 27.1%
% induction of DNA fragmentation ([3]; 5000 μg/ml): 83.3%
IL-8 inhibition ([4]; HaCaT): good extent of TSLP and IL-8 inhibition
IL-8 % decrease with respect to LPS + PMA ([4]; 0.1 μg/ml): 8.8%
IL-8 Conc ([4]; 0.1 μg/ml): 357.4 pg/mL
IL-8 % decrease with respect to LPS + PMA ([4]; 1 μg/ml): 19.8%
IL-8 Conc ([4]; 1 μg/ml): 314.5 pg/mL
IL-8 % decrease with respect to LPS + PMA ([4]; 5 μg/ml): 4.3%
IL-8 Conc ([4]; 5 μg/ml): 375.3 pg/mL
IL-8 % decrease with respect to LPS + PMA ([4]; 10 μg/ml): 19.4%
IL-8 Conc ([4]; 10 μg/ml): 316.1 pg/mL
IL-8 % decrease with respect to LPS + PMA ([4]; 100 μg/ml): −18.1%
IL-8 Conc ([4]; 100 μg/ml): 463.1 pg/mL
secretion of TSLP inhibited as compared to LPS+PMA stimulated cells ([5]; 0.1 μg/ml-100 μg/ml): 46.4%-53.6%
TSLP inhibition ([5]; HaCaT): good extent of TSLP and IL-8 inhibition
TSLP % decrease with respect to LPS + PMA ([5]; 0.1 μg/ml): 49.4%
TSLP Conc (pg/ml) ([5]; 0.1 μg/ml): 62.9*** pg/ml
TSLP % decrease with respect to LPS + PMA ([5]; 1 μg/ml): 47.9%
TSLP Conc (pg/ml) ([5]; 1 μg/ml): 64.7*** pg/ml
TSLP % decrease with respect to LPS + PMA ([5]; 5 μg/ml): 46.4%
TSLP Conc (pg/ml) ([5]; 5 μg/ml): 66.6*** pg/ml
TSLP % decrease with respect to LPS + PMA ([5]; 10 μg/ml): 53.6%
TSLP Conc (pg/ml) ([5]; 10 μg/ml): 57.6*** pg/ml
TSLP % decrease with respect to LPS + PMA ([5]; 100 μg/ml): 49.8%
TSLP Conc (pg/ml) ([5]; 100 μg/ml): 62.4*** pg/ml
viability at 24 h, 10 μg/ml ([6]; 10 μg/ml): 81.2%
viability at 24 h, 50 μg/ml ([6]; 50 μg/ml): 84.2%
viability at 24 h, 100 μg/ml ([6]; 100 μg/ml): 90.4%
viability at 24 h, 500 μg/ml ([6]; 500 μg/ml): 88.5%
viability at 24 h, 1 mg/ml ([6]; 1 mg/ml): 61.3%
viability at 24 h, 5 mg/ml ([6]; 5 mg/ml): 15%
cytotoxicity ([7]; THP-1, 10 μg/ml-500 μg/ml): 25%
cytotoxicity ([7]; THP-1, 1 mg/ml): 38.7%
cytotoxicity ([7]; THP-1, 5 mg/ml): 85%
inhibition at 10 µg/mL ([8]; 10 μg/ml): 20%
inhibition at 50 µg/mL ([8]; cell free, 50 μg/ml): 20%
inhibition at 100 µg/mL ([8]; cell free, 100 μg/ml): 8%
inhibition at 250 µg/mL ([8]; cell free, 250 μg/ml): -8%
inhibition at 500 µg/mL ([8]; cell free, 500 μg/ml): -17%
inhibition at 1000 µg/mL ([8]; cell free, 1000 μg/ml): -19%
inhibition at 2000 µg/mL ([8]; cell free, 2000 μg/ml): -80%
